# The supplement of paper PMC6045584
# ± gives the standard deviation of the averaged measurements.
# Tests used:
# AZD4547 = compound: COc1cc(CCc2cc(NC(=O)c3ccc(N4CC(C)NC(C)C4)cc3)n[nH]2)cc(OC)c1 [AZD4547]; assay: surviving fraction relative to DMSO-only wells; higher = less growth inhibition; conditions: exposure time: 5 days
# Outline: (§1)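 Viability was scored with CellTiter-Glo luminescence and normalised to the median of DMSO-only wells as surviving fraction. Beforehand, log-phase tumour cell lines were seeded at 250–500 cells per well in 384-well plates, allowed 24 hours, and exposed continuously for five days to inhibitors at 0.5, 1, 5, 10, 50, 100, 500 and 1000 nM. Only lines whose three screens gave replicate Pearson r >0.7 and median Z' >0.3 were kept.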
# SUNITINIB = compound: CCN(CC)CCNC(=O)c1c(C)[nH]c(/C=C2\C(=O)Nc3ccc(F)cc32)c1C [SUNITINIB]; assay: as above; conditions: exposure time: 5 days
# Outline: as §1
Test System,surviving fraction (AZD4547; 0.5 nM),surviving fraction (AZD4547; 1 nM),surviving fraction (AZD4547; 5 nM),surviving fraction (AZD4547; 10 nM),surviving fraction (AZD4547; 50 nM),surviving fraction (AZD4547; 100 nM),surviving fraction (AZD4547; 500 nM),surviving fraction (AZD4547; 1000 nM),surviving fraction (SUNITINIB; 0.5 nM),surviving fraction (SUNITINIB; 1 nM),surviving fraction (SUNITINIB; 5 nM),surviving fraction (SUNITINIB; 10 nM),surviving fraction (SUNITINIB; 50 nM),surviving fraction (SUNITINIB; 100 nM),surviving fraction (SUNITINIB; 1000 nM),surviving fraction (SUNITINIB; 500 nM)
SUM44 BREAST,0.9847 ± 0.0095,1.02 ± 0.029,0.985 ± 0.042,1.08 ± 0.064,1.11 ± 0.019,1.06 ± 0.011,1.09 ± 0.066,1.07 ± 0.05,0.82 ± 0.065,0.877 ± 0.02,0.966 ± 0.061,0.915 ± 0.04,1.07 ± 0.076,1.11 ± 0.023,0.958 ± 0.013,–
MDAMB134 BREAST,1.04 ± 0.28,1.04 ± 0.088,1.01 ± 0.083,0.922 ± 0.078,0.973 ± 0.14,0.899 ± 0.089,1.04 ± 0.028,1.05 ± 0.17,0.675 ± 0.021,0.777 ± 0.087,0.715 ± 0.14,0.675 ± 0.022,0.887 ± 0.067,–,–,1.05 ± 0.22
MDAMB231 BREAST,0.973 ± 0.018,1.02 ± 0.025,1.009 ± 0.0064,1.02 ± 0.033,1.02 ± 0.019,1.06 ± 0.032,1.06 ± 0.035,1.06 ± 0.028,0.955 ± 0.016,0.9679 ± 0.0028,0.979 ± 0.012,0.976 ± 0.033,1.09 ± 0.017,1.12 ± 0.017,0.848 ± 0.011,1.04 ± 0.0064
CME SYNOVIAL,1.21 ± 0.046,1.09 ± 0.063,1.29 ± 0.11,1.14 ± 0.14,1 ± 0.075,0.935 ± 0.097,0.761 ± 0.051,0.724 ± 0.035,0.928 ± 0.17,0.551 ± 0.019,–,0.036 ± 0.0027,–,0.82 ± 0.032,0.0447 ± 0.0074,0.767 ± 0.1
HCC1954 BREAST,0.677 ± 0.04,0.711 ± 0.052,0.84 ± 0.087,1.01 ± 0.12,0.956 ± 0.023,0.887 ± 0.069,1.0088 ± 0.00035,1 ± 0.1,0.363 ± 0.098,0.365 ± 0.15,0.38 ± 0.16,0.434 ± 0.2,0.5 ± 0.045,0.555 ± 0.052,0.65 ± 0.0088,0.616 ± 0.092
SG32 HEADNECK,0.915 ± 0.25,1 ± 0.15,0.925 ± 0.2,0.938 ± 0.083,1.04 ± 0.031,0.946 ± 0.032,0.968 ± 0.3,0.659 ± 0.056,–,0.578 ± 0.032,0.771 ± 0.13,0.423 ± 0.078,0.96 ± 0.045,0.609 ± 0.062,0.0993 ± 0.011,0.317 ± 0.048
HCC70 BREAST,1.03 ± 0.11,1.12 ± 0.082,1.16 ± 0.045,1.14 ± 0.07,1.1 ± 0.091,1.15 ± 0.018,1.03 ± 0.098,0.946 ± 0.093,1.01 ± 0.029,–,1 ± 0.096,0.904 ± 0.045,–,–,–,1.15 ± 0.11
MHM BONE,0.961 ± 0.016,1 ± 0.006,0.995 ± 0.016,0.993 ± 0.021,0.776 ± 0.014,0.694 ± 0.0087,0.587 ± 0.0075,0.582 ± 0.011,0.956 ± 0.038,0.962 ± 0.021,0.9887 ± 0.0061,–,–,–,0.774 ± 0.021,0.881 ± 0.021
NY BONE,0.984 ± 0.052,1.03 ± 0.039,1.03 ± 0.049,0.894 ± 0.02,0.466 ± 0.0057,0.394 ± 0.019,0.359 ± 0.023,0.315 ± 0.026,0.904 ± 0.016,0.855 ± 0.023,–,0.918 ± 0.04,0.937 ± 0.01,0.929 ± 0.019,0.481 ± 0.036,0.696 ± 0.023
JIMT1 BREAST,0.99 ± 0.016,1.03 ± 0.04,1.018 ± 0.0059,1.02 ± 0.0097,1.032 ± 0.0075,1.07 ± 0.032,1.05 ± 0.02,1.06 ± 0.03,0.826 ± 0.025,0.81 ± 0.07,0.841 ± 0.041,0.848 ± 0.069,1.05 ± 0.056,1.04 ± 0.075,0.54 ± 0.063,0.776 ± 0.098
KPD BONE,0.961 ± 0.049,0.945 ± 0.078,0.991 ± 0.094,0.984 ± 0.024,1 ± 0.067,0.956 ± 0.088,0.804 ± 0.039,0.642 ± 0.036,0.898 ± 0.04,0.875 ± 0.031,0.928 ± 0.042,–,0.9567 ± 0.007,0.972 ± 0.022,0.441 ± 0.046,0.73 ± 0.031
HMLE3 BREAST,0.986 ± 0.082,0.959 ± 0.04,0.882 ± 0.05,0.79 ± 0.025,0.57 ± 0.046,0.455 ± 0.053,0.418 ± 0.064,0.379 ± 0.032,0.887 ± 0.037,0.715 ± 0.058,0.816 ± 0.019,0.241 ± 0.053,0.867 ± 0.064,0.832 ± 0.061,0.108 ± 0.0078,0.498 ± 0.018
RDES SOFT TISSUE,1.28 ± 0.16,1.29 ± 0.047,1.12 ± 0.084,1.1 ± 0.12,0.835 ± 0.13,0.813 ± 0.14,0.961 ± 0.16,1.04 ± 0.12,0.851 ± 0.24,0.741 ± 0.2,0.794 ± 0.11,0.794 ± 0.12,–,1.08 ± 0.19,0.567 ± 0.099,1.17 ± 0.17
T47D BREAST,1.02 ± 0.044,1.05 ± 0.013,1.06 ± 0.043,1.04 ± 0.034,1.09 ± 0.018,1.12 ± 0.025,1.18 ± 0.03,1.2 ± 0.073,0.93 ± 0.037,0.896 ± 0.059,0.911 ± 0.018,0.817 ± 0.034,1.11 ± 0.027,1.13 ± 0.038,0.985 ± 0.077,1.13 ± 0.04
HU09 BONE,0.983 ± 0.077,0.982 ± 0.16,1.03 ± 0.089,1.07 ± 0.061,0.797 ± 0.066,0.856 ± 0.026,0.624 ± 0.062,0.419 ± 0.031,0.865 ± 0.14,–,0.768 ± 0.076,0.637 ± 0.048,0.498 ± 0.051,0.485 ± 0.073,0.161 ± 0.011,0.288 ± 0.035
NCIH441 LUNG,0.977 ± 0.026,1.09 ± 0.035,1.06 ± 0.011,1.06 ± 0.066,1.01 ± 0.038,1.02 ± 0.026,0.934 ± 0.17,0.929 ± 0.093,0.963 ± 0.039,–,–,0.952 ± 0.029,1.02 ± 0.043,0.977 ± 0.079,0.764 ± 0.079,–
ZR751 BREAST,0.902 ± 0.092,0.949 ± 0.095,0.838 ± 0.076,0.887 ± 0.041,0.837 ± 0.15,1.01 ± 0.029,1.05 ± 0.093,0.971 ± 0.059,–,1.1 ± 0.16,1.15 ± 0.083,–,1.31 ± 0.25,–,–,1.22 ± 0.16
S68 BREAST,0.981 ± 0.08,1.04 ± 0.052,1.02 ± 0.25,1.1 ± 0.18,0.957 ± 0.23,1.53 ± 0.1,1.05 ± 0.035,0.684 ± 0.062,0.716 ± 0.13,0.674 ± 0.15,–,0.74 ± 0.18,1.07 ± 0.098,0.98 ± 0.13,0.488 ± 0.1,0.709 ± 0.065
CAL51 BREAST,0.9767 ± 0.007,0.977 ± 0.035,0.937 ± 0.029,0.849 ± 0.052,0.7553 ± 0.0068,0.738 ± 0.022,0.616 ± 0.021,0.602 ± 0.059,0.886 ± 0.047,0.895 ± 0.012,0.94 ± 0.011,0.934 ± 0.053,–,1.01 ± 0.035,0.202 ± 0.031,0.52 ± 0.031
